The values below come from PMC11509018, “Evaluation of the Role of Tanshinone I in an In Vitro System of Charcot-Marie-Tooth Disease Type 2N” (International Journal of Molecular Sciences, 2024).

The target of this assay is T1, AlaRS N71Y binding to GST-Nrp1 b1 (Homo sapiens, UniProt P49588, N71Y).
T1 construct: made in house; host or cells: E. coli BL21 (DE3), pET-21a for AlaRS
T1 sequence (P49588 1-968 N71Y): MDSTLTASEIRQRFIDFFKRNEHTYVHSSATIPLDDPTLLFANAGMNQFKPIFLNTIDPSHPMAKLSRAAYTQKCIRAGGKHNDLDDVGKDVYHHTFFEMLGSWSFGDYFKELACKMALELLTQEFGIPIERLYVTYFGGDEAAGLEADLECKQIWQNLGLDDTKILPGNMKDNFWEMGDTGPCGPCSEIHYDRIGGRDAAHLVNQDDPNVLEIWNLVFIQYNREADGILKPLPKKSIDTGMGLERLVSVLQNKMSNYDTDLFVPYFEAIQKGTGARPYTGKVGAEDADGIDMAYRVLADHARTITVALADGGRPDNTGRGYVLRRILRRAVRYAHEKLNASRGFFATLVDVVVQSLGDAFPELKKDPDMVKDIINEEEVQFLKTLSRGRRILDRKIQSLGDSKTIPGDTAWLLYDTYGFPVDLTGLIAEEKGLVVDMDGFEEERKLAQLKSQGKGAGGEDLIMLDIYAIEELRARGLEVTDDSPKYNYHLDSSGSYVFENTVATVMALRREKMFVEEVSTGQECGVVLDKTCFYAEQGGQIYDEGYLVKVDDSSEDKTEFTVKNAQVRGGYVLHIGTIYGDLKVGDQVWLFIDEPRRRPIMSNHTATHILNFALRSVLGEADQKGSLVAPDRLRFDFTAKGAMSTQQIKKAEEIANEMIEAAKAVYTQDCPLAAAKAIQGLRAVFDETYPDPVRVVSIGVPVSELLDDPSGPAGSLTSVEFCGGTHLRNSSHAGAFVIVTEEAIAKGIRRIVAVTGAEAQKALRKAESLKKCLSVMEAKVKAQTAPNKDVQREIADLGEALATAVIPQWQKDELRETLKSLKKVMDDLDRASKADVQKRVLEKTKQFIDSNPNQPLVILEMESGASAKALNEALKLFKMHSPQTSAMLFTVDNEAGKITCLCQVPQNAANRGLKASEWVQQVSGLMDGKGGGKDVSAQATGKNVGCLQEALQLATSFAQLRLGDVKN
As to the kind of experiment: GST pull down assay. The settings on record: 20 µM Tanshinone I, ImageJ, average of three repeats. On the procedure:
To further investigate whether Tanshinone I-induced conformational changes in AlaRS CMT mutants affect their interaction with Nrp1, Co-IP experiments were performed in cells treated with Tanshinone I. By comparing Co-IP results obtained before and after treatment, we assessed the influence of the drug on the binding strength and mode between the AlaRS CMT mutants and Nrp1. […] To confirm the direct effect of Tanshinone I on the interaction between AlaRS CMT mutants and Nrp1, pull-down experiments were performed. […] Given that the interaction between AlaRS mutants and Nrp1 is associated with disease progression in CMT, the ability of Tanshinone I to disrupt this binding highlights its potential to intervene in the pathogenic mechanisms of these diseases.
Figure 7 The impact of Tanshinone I on the interaction between AlaRS mutants and Nrp1. (A) Co-IP assays were conducted to assess the binding between HA-AlaRS mutants and Nrp1, both with and without treatment with 20 µM Tanshinone I for 24 h. […] (C) Pull down assay was performed to detect the binding between AlaRS mutants and GST-Nrp1 b1 with or without 20 µM Tanshinone I. (D) Relative quantification statistics of the AlaRS mutants pulled down from the GST pull down experiments after Tanshinone I treatment were performed using ImageJ. (E) The cell viability of 293T and NSC34 cells treated with different concentrations of Tanshinone I was assessed using the CCK-8 assay over a 24 h period. TEXT PRINTED IN THE PICTURE: (B) Tanshinone I: Mean density band (N71Y): 0.60; Mean density band (G102R): 0.53; Mean density band (R326W): 0.50; Mean density band (R329H): 0.50; Mean density band (E337K): 0.62 | (D) Tanshinone I: Mean density band (N71Y): 0.82; Mean density band (G102R): 0.76; Mean density band (R326W): 0.84; Mean density band (R329H): 0.84; Mean density band (E337K): 0.90
To detect the direct interactions between the mutant proteins and Nrp1 in vitro, we performed a Glutathione S-transferase (GST) pull-down assay. AlaRS mutants fused with 6 × His were purified with Ni-NTA beads, followed by chromatography on a HiTrap Q HP column. Nrp1 b1 fragments fused with GST were purified with Glutathione Beads (#SA008100, Smart-Lifesciences, Changzhou, China). For GST pull-down assays, 1000 μg of each GST-fused Nrp1 b1 fragment was mixed with 200 μg of 6 × His-tagged fusion protein in binding buffer (50 mM Tris-HCl pH 7.5, 20 mM NaCl, 5% glycerol, 5 mM DTT with 0.1% BSA) at 4 °C overnight. The mixture was next incubated with 30 μL glutathione beads at 4 °C with constant rotation for 2–4 h. Subsequently, the bead/protein complex was washed three times, and eluted with 30 μL 2 × SDS sample buffer. The samples were then subjected to SDS-PAGE analysis. The experiment was repeated three times.

On to `Cc1coc2c1C(=O)C(=O)c1c-2ccc2c(C)cccc12` [Tanshinone I], for which the “Mean density band (N71Y), relative quantification of AlaRS mutant pulled down” value is reported as 0.82.
